According to article PMC5446775, “Interactions of 172 plant extracts with human organic anion transporter 1 (SLC22A6) and 3 (SLC22A8): a study on herb-drug interactions” (PeerJ, 2017):
“And” between values parts separate entries of the source, which are not always exact repeats. Equal values may be shown once.

Tests used:
[1] = Pharmacokinetics of furosemide in rats with and without Juncus effusus extract; assay type: in vivo; details: FS 10 mg/kg i.v. alone
hOAT3 = target: T1, hOAT3 (Homo sapiens, UniProt Q8TCC7); assay: Inhibition of 6-CF uptake in HEK-OAT3 cells (screening at 5 μg/ml and concentration-dependent inhibition); assay type: cell-based; parameters: Invitrogen (Flp-In system, cells); 6-CF uptake OAT3, Figure 2 raw data (single replicates) / OAT3-mediated 6-CF uptake (Inhibitory effects of butanol extracts on OAT-mediated 6-CF), raw replicate values / OAT3-mediated 6-CF uptake (Inhibitory effects of aqueous extracts on OAT-mediated 6-CF), raw replicate values: unit not given here
T1 sequence (Q8TCC7 1-542): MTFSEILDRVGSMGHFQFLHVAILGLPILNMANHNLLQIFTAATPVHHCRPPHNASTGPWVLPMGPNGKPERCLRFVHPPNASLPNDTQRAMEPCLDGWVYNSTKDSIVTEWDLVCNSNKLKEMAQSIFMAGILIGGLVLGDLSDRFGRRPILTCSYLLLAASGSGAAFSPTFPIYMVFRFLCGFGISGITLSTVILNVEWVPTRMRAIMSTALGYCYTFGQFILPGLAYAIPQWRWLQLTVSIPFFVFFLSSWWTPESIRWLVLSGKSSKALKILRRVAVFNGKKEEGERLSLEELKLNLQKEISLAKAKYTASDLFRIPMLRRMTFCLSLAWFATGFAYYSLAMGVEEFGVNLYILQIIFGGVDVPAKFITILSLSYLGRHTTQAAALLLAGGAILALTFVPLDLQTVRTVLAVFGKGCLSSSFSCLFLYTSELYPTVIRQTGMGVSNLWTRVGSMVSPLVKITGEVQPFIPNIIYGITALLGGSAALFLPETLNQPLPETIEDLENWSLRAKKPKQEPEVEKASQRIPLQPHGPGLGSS
Protocol: The stock solutions of plant extracts were prepared using DMSO with a final concentration of 1 mg/ml. The initial concentration for each extract was set at 5 μg∕ml. Every well contained the same concentration of DMSO (0.5%) to eliminate the potential effect of solvent. […] Before the initial screening, the reproducibility of uptake experiments was evaluated. […] Due to the large number of samples, for the initial screening study, each uptake experimental sample was measured in triplicates in the same assay.
After the uptake was terminated at 4 min and 10 min for OAT1 and OAT3 respectively, intracellular fluorescence was determined as above.

Clobs of FS [1]	V z_obs of FS [1]	6-CF fluorescence of cells (fluorescence images) (hOAT3; HEK-OAT3, co-incubation with probenecid 30 μM)	OAT3-mediated 6-CF uptake (Inhibitory effects of aqueous extracts on OAT-mediated 6-CF), raw replicate values (hOAT3; aqueous extracts, screening at 5 μg/ml, HEK-OAT3 cells, three replicate columns, Control about 100, Prob = positive control)	OAT3-mediated 6-CF uptake (Inhibitory effects of butanol extracts on OAT-mediated 6-CF), raw replicate values (hOAT3; butanol extracts, screening at 5 μg/ml, HEK-OAT3 cells, three replicate columns, Control about 100, Prob = positive control)	6-CF uptake OAT3, Figure 2 raw data (single replicates) (hOAT3; probenecid 30 μM positive control, 6-CF 4 μM, 10 min, HEK-OAT3)	SMILES
1.0 ± 1.0 L/min/kg × 10^−3	146.9 ± 12.1 L/kg ×10^−3					NS(=O)(=O)c1cc(C(=O)O)c(NCc2ccco2)cc1Cl [FS, furosemide]
		almost completely abolished	2.375 and 2.144 and 0.9311	2.375 and 2.144 and 0.9311	2.375 and 2.144 and 0.9311	CCCN(CCC)S(=O)(=O)c1ccc(C(=O)O)cc1 [probenecid, Probenecid]
